The values below come from US9707239B2, “Compounds that modulate oxidative stress” (vTv Therapeutics LLC, priority 2011, dated 2017).

The test system of data set [1] is HMOX1. Put plainly: Effect of NAC on compound induction of HMOX gene expression. Conditions: NHLF cells pretreated with 5 mM NAC 1 hr, compound 6 h, FIG. 4. The data set is classed as cell-based, human. On the procedure:
NHLF cells were grown to 80% confluency and harvested by washing once with HEPES and then trypsinizing. Equal numbers (7×10^4 cells per well) of NHLF cells were plated in 96 well tissue culture (Corning) plates. Cells were incubated overnight in FGM-2 medium prior to exposure to compound. Cells were pretreated with 5 mM N-acetyl cysteine for 1 hr. Cells were treated with either DMSO or compound for 6 h. Preparation of cell lysates was carried out according to Quantigene Reagent system 2.0 protocol (Panomics). Heme oxygenase mRNA induction was detected from cell lysate using the Quantigene Plex 2.0 Assay Kit (Panomics) on the Luminex platform (BIO-RAD). Expression of GAPDH mRNA was used as the internal control for the Quantigen Plex 2.0 Assay. Heme oxygenase data represents the fold change, normalized to control values, above DMSO treated cells.
A further test of the hypothesis that Compound 13 induces HMOX1 with minimal alteration of cellular redox levels or chemical reactivity was carried out by treating cells with N-acetyl cysteine (NAC). This compound acts to restore cellular glutathione levels and thus prevent oxidative stress. The degree to which NAC can suppress HMOX1 induction is an indicator of the amount of chemical reactivity or ROS stress that a compound is imposing on the cell and thus activating phase II gene transcription. […] Coupled with the data shown in FIG. 3, it is concluded that Compound 13 induces HMOX1 with minimal elevation of ROS or NAC-sensitive chemical reactivity.

The subject of data set [2] is NHLF cells. Put plainly: ROS measurements (H2DCF-DA imaging). The data set is classed as cell-based, human. As to conditions: 1 hr; for elevation of ROS production: relative to untreated controls, FIG. 3A; for ROS production (in words): cell-by-cell imaging, FIG. 3A/3B. On the procedure: Secondary growth of NHLF cells were used for all assays. Cells were cultured as above. Cells were plated into 384-well BD-Optilux Plates at 2,000 cells/well and cultured overnight at 37° C. and 5% CO2. The following day, cell were washed and 2,7-dihydrodichlorofluorescin diacetate (H2DCF-DA), 10 μM ferric ammonium citrate (FAC), and Hoechst stain were added to cells for 30 min. The cells were washed once with PBS to remove any H2DCF-DA not taken up by cells. Test compounds were prepared in FBM-2 media at the desired concentrations. The plates and stain-treated cells were incubated with test compounds for 1 hr at 37° C. and 5% CO2. Following the incubation period, ROS generation was determined by imaging the cells on a GE INcell 1000 imager (Hoechst Ex. 360 Em. 535; H2DCF-DA 488 Ex. 480 Em. 535). ROS levels were determined and quantified using GE IN Cell Analyzer Software.
In addition to gene profiling, the requirement for ROS generation or chemical reactivity was tested. ROS generation was measured using an automated imaging technique. Compound 13 as well as two other compounds that were found in the screening set were tested in this experiment. Untreated NHLF cells, NHLF cells treated with the HMOX1 inducer CoPP (a negative control), and NHLF cells treated with curcumin or celestrol (positive controls) were included as controls. […] Further experiments were also conducted on chemical derivatives of Compound 13. In those experiments, all compounds tested were found not to induce an elevation of ROS levels in the cell (FIG. 3B). Thus, Compound 13 and related compounds represent a class of agents that elevate HMOX1 production without elevating ROS production.

A further data set has as its system TXNRD1. Put plainly: mRNA expression (Quantigene Plex) in NHLF cells: TXNRD1. The data set is classed as cell-based, human. As to conditions: Table 6, 6 h, mRNA normalized to GAPDH, above DMSO treated cells. On the procedure:
(§1) Secondary growth of NHLF cells were used for all assays. Cell were thawed and then placed into culture in T225 flasks. The cells were grown to 80% confluency and harvested by washing once with HEPES buffered saline solution and then trypsinizing. Equal numbers (7×10^3 cells per well) of NHLF cells were plated in 96 well tissue culture plates (Corning). Cells were incubated overnight in FGM-2 medium prior to exposure to compound. Cells were treated with either DMSO or a compound as described below for 6 h. Preparation of cell lysates was carried out according to instructions using the Quantigene Reagent system 2.0 protocol (Panomics). mRNA induction was detected from cell lysate using the Quantigene Plex 2.0 Assay Kit (Panomics) on the Luminex platform (BIO-RAD). Expression of GAPDH mRNA was used as the internal control for the Quantigen Plex 2.0 Assay. The data in Tables 5 and 6 represents the fold change of target mRNA expression, normalized to control values, above DMSO treated cells.

In the next data set the test system is NQO1. Description: mRNA expression (Quantigene Plex) in NHLF cells: NQO1. The data set is classed as cell-based, human. Conditions: Table 6, 6 h, mRNA normalized to GAPDH, above DMSO treated cells. On the procedure:
as §1

Data set [3] has as its system HMOX1. Put plainly: mRNA expression (Quantigene Plex) in NHLF cells: HMOX1. The data set is classed as cell-based, human. Conditions: Table 6, 6 h, mRNA normalized to GAPDH, above DMSO treated cells. On the procedure:
as §1

Another data set concerns GADD45A. Put plainly: mRNA expression (Quantigene Plex) in NHLF cells: GADD45A. The data set is classed as cell-based, human. Conditions: Table 6, 6 h, mRNA normalized to GAPDH, above DMSO treated cells. On the procedure:
as §1

The subject of the next data set is HSPA6. Put plainly: mRNA expression (Quantigene Plex) in NHLF cells: HSPA6. The data set is classed as cell-based, human. As to conditions: Table 6, 6 h, mRNA normalized to GAPDH, above DMSO treated cells. On the procedure: as §1
A further data set concerns ICAM. Description: mRNA expression (Quantigene Plex) in NHLF cells: ICAM. The data set is classed as cell-based, human. Conditions: Table 6, 6 h, mRNA normalized to GAPDH, above DMSO treated cells. Here is the method:
as §1

The subject of data set [4] is NHLF cells. Description: Cytoprotection of cisplatin (CDDP)-treated NHLF cells (propidium iodide staining). The data set is classed as cell-based. On the procedure: (§2) A key outcome of Bach1 derepression and Nrf2 activation are the induction of cytoprotective genes. A method to test such cytoprotection is to assess the ability of a compound to protect normal human cells such as lung fibroblasts from toxicity due to cisplatin exposure. A model of cellular cytoprotection was established whereby normal human lung fibroblasts were treated with Bach1 modulators and then subsequently exposed to cisplatin. NHLF cells are very sensitive to cisplatin exposure; following a dose of 200 uM cisplatin, >90% of NHLF cells are propidium iodide positive, a measure of cell death.

The test system of data set [5] is HMOX1. Description: HMOX1 induction in NHLF cells in the cisplatin cytoprotection model. As to conditions: compound 24 hours prior to cisplatin, FIG. 8. The data set is classed as cell-based, human. On the procedure: as §2
A further data set relates to Keap1. Description: HMOX1 induction after Keap1 silencing (shRNA). The data set is classed as cell-based, human. As to conditions: NHLF cells, FIG. 6. On the procedure:
Normal human lung fibroblasts were plated in a 12-well tissue culture dish at 16,000 cells/well and allowed to attach overnight. Regular medium was then replaced with 200 μl of fresh growth medium containing 8 μg/ml hexadimethrine bromide (polybrene). Lentiviral transduction particles were then added in the following amounts: Control shRNA (1.1×10^7 TU/ml, Sigma, cat# SHC002V), 15 μl for an MOI of 10; KEAP-1 shRNA (6.3×10^6 TU/ml, Sigma, cat# SHCLNV-TRCN0000046092), 63 μl for an MOI of 20. After 4 hours in the cell culture incubator, another 200 μl of growth medium was added on top of the original volume. Cells were replenished the next day with fresh complete growth medium and were allowed to recover for 24 hours, after which selection medium was applied (complete medium with 1 μg/ml puromycin).
Another method of testing the role of the Nrf2 regulatory pathway on compound activity is to determine the effect of silencing Keap1 on HMOX1 gene expression. It is known that deleting Keap1 will result in the induction of Nrf2 dependent genes but not, to any significant degree, HMOX1. The proposed explanation for this observation is that HMOX1 requires the concomitant derepression of Bach1 activity and that this event is more dependent on active processes (e.g., heme binding, changes in redox potential of the cell, phosphorylation of Bach1, etc.). We therefore tested the ability of Compound 13 and tool compounds to induce HMOX1 in the presence of silencing of Keap1 in normal human lung fibroblasts.
Normal human lung fibroblasts were tested with DMSO, CoPP, Compound 13, and two derivatives including Compound 4 and Compound 8. An electrophile, Compound 1, was also included in the test set. […] On the other hand, induction of HMOX1 by the electrophile Compound 1 was inhibited.

Entries after “also recorded” stand apart in the source; their conditions may differ. Bounds are passed on as bounds.

In the case of `COc1cc(/C=C/C(=O)CC(=O)/C=C/c2ccc(O)c(OC)c2)ccc1O` [curcumin, reference compound], the “effect of N-acetyl cysteine (NAC) on HMOX1 induction” value in the data set with HMOX1 [1] is listed as “inhibited nearly fully by NAC; also recorded: fully suppressed in the presence of NAC”. Besides, the “elevation of ROS production” value with NHLF cells [2] was “approximately 3 fold”.

`CC1OCCC1S(=O)(=O)c1c(-c2ccc(C(F)(F)F)cc2)cnc2ccccc12` (stereo not drawn) [Compound 3, 4-(2-Methyl-tetrahydro-furan-3-sulfonyl)-3-(4-trifluoromethyl-phenyl)-quinoline]: the “TXNRD1 (fold induction)” value in the data set with TXNRD1 turned out to be 1.47 fold induction. Further, the “NQO1 (fold induction)” value in the data set on NQO1 is 1.69 fold induction. The “HMOX1 (fold induction)” value with HMOX1 [3] is recorded as 45.17 fold induction. For the same compound, the “GADD45A (fold induction)” value in the data set on GADD45A is given as 1.37 fold induction. The “HSPA6 (fold induction)” value in the data set on HSPA6 amounted to 2.71 fold induction. Besides, the “ICAM1 (fold induction)” value in the data set with ICAM amounted to 1.47 fold induction. Moreover, in the data set with NHLF cells [2], the “ROS production (in words)” value is given as “no demonstrable increase in ROS production”.

In the case of `COC(=O)[C@]12CCC(C)(C)CC1C1C(=O)C=C3[C@@]4(C)CC(C#N)C(=O)C(C)(C)[C@@H]4CC[C@@]3(C)[C@]1(C)CC2` (stereo partly drawn) [Compound 5, (4aS,6aR,6bS,8aR,12aS)-11-Cyano-2,2,6a,6b,9,9,12a-heptamethyl-10,14-dioxo-1,3,4,5,6,6a,6b,7,8,8a,9,10,11,12,12a,14, 14a,14b-octadecahydro-2H-picene-4a-carboxylic acid methyl ester, reference compound], the “TXNRD1 (fold induction)” value in the data set with TXNRD1 worked out at 1.83 fold induction. In the data set with NQO1, the “NQO1 (fold induction)” value turned out to be 2.01 fold induction. In addition, in the data set with HMOX1 [3], the “HMOX1 (fold induction)” value was 23.97 fold induction. The “GADD45A (fold induction)” value with GADD45A was determined as 0.89 fold induction. In addition, the “HSPA6 (fold induction)” value in the data set with HSPA6 is given as 1.60 fold induction. Moreover, in the data set with ICAM, the “ICAM1 (fold induction)” value worked out at 1.16 fold induction. Further, the “ROS production (in words)” value in the data set with NHLF cells [2] is given as “no demonstrable increase in ROS production”.

As to `Cc1nc(Nc2nc3cc(C(=O)NCCOCCN)ccc3[nH]2)sc1C` [Compound 11, 2-(4,5-Dimethyl-thiazol-2-ylamino)-1H-benzoimidazole-5-carboxylic acid [2-(2-amino-ethoxy)-ethyl]-amide], the “protection against cisplatin toxicity” value with NHLF cells [4] (NHLF cells, compound 24 hours prior to cisplatin exposure, FIG. 8) was “failed to protect NHLF cells against cisplatin toxicity; also recorded: failed to protect cells from CDDP-mediated cytotoxicity”. The HMOX1 induction result in the data set on HMOX1 [5] was “inactive HMOX1 inducers; also recorded: did not induce HMOX1”.

For `CC1=C(O)C(=O)C=C2C1=CC=C1[C@@]2(C)CC[C@@]2(C)[C@@H]3C[C@](C)(C(=O)O)CC[C@]3(C)CC[C@]12C` [celestrol, reference compound], in the data set with HMOX1 [1], the “effect of N-acetyl cysteine (NAC) on HMOX1 induction” value is recorded as “inhibited nearly fully by NAC; also recorded: fully suppressed in the presence of NAC”. The “elevation of ROS production” value with NHLF cells [2] is recorded as around 2 fold.

For the compound `COC(=O)c1ccc2[nH]c(Nc3nc4ccccc4s3)nc2c1` [Compound 4, 2-(Benzothiazol-2-ylamino)-1H-benzoimidazole-5-carboxylic acid methyl ester], the “TXNRD1 (fold induction)” value with TXNRD1 came to 1.74 fold induction. The “HMOX1 induction in the presence of Keap1 silencing” value in the data set on Keap1 was “unaffected in their ability to induce HMOX1 in the presence of Keap1 silencing; also recorded: behaves similarly to CoPP induction”. Further, the “NQO1 (fold induction)” value in the data set on NQO1 is 1.85 fold induction. Further, the “HMOX1 (fold induction)” value in the data set on HMOX1 [3] came out at 56.15 fold induction. In addition, in the data set with GADD45A, the “GADD45A (fold induction)” value is recorded as 2.00 fold induction. Further, the “HSPA6 (fold induction)” value in the data set with HSPA6 came out at 1.08 fold induction. Moreover, in the data set on ICAM, the “ICAM1 (fold induction)” value is on record as 0.77 fold induction. Also, the “ROS production (in words)” value with NHLF cells [2] was “no demonstrable increase in ROS production”.

Take `CCOC(=O)/C=C/c1cnc2ccccc2c1S(=O)(=O)C1CCOC1C` (stereo not drawn) [Compound 1, (E)-3-[4-(2-Methyl-tetrahydro-furan-3-sulfonyl)-quinolin-3-yl]-acrylic acid ethyl ester]: the “HMOX1 induction in the presence of Keap1 silencing” value with Keap1 is listed as “inhibited”.

Take `N.N.[Cl][Pt][Cl]` [cisplatin, reference compound]: in the data set on NHLF cells [4] (200 uM cisplatin), the “NHLF cells propidium iodide positive (cell death)” value is above 90%.
